In patent US6113907A, “Pharmaceutical grade St. John's Wort” (priority 1997, dated 2000):
Structures can show the parent of a compound that is named as a salt. Where two headings read alike, the source gives them in different places.

Legend:
serotonin transporter [1] = target: T1, serotonin transporter (Rattus norvegicus, UniProt P31652); settings: cited from earlier work
T1 construct: Cerebral cortical membranes derived from male Wistar rats; from tissue; host or cells: cerebral cortical membranes of male Wistar rats
T1 sequence (P31652 whole entry): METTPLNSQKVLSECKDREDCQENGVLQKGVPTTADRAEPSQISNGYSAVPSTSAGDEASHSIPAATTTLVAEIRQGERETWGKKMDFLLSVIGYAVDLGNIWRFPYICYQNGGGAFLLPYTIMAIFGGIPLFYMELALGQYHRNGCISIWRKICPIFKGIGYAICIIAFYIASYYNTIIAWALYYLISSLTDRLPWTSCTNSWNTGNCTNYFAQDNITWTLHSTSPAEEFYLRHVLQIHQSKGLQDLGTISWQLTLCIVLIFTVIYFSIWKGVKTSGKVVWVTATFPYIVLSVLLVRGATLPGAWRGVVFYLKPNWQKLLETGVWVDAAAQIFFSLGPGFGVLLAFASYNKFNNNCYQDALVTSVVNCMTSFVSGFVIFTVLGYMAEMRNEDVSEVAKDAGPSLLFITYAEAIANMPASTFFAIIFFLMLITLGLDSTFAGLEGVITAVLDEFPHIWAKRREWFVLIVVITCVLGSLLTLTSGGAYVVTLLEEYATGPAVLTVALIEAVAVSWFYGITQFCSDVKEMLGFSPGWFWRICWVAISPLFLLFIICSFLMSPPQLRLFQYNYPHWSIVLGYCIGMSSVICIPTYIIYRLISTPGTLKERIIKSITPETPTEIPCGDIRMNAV

[2] = oil preparations, exposed to light; cited from earlier work
serotonin transporter [3] = target: T1, serotonin transporter; assay: serotonin transporter assay, [125I]-RTI-121, rat cerebral cortical membranes; format: binding
GABAA receptor = settings: read-out: Ki(nM) GABAA reference compounds; cited from earlier work
[4] = target: glutamate receptor, NMDA agonist site; settings: cited from earlier work
Monoamine Oxidase A = settings: read-out: Inhibition of Monoamine Oxidase A Activity IC50; cited from earlier work
adenosine receptor = adenosine receptor non-selective (ADNS), [3H] NECA, bovine striatal membranes; format: binding
Experimental: To determine the inhibitory activity of the substances for the dopamine receptor (dp) the following assay was preformed. A partial receptor preparation was prepared from bovine striatal membranes using [^3 H] spiperone as the ligand at a final concentration of 0.3 nM. To determine non-specific binding cold spiperone was tested at 1 μM. The reactions were carried out in 50 mM Tris-HCl (pH 7.7) containing 120 mM NaCl, 5 mM KCl, 2 mM CaCl2 and 1 mM MgCl2 at 37° C. for 60 minutes. […] The inhibitory properties of the substances for binding of ligand to the adenosine receptor (ADNS) was measured using a partially purified receptor preparation made from bovine striatal membranes. The radioligand used was [^3 H] 5'-N-ethylcarboxyamidoadenosine (NECA) at a final ligand concentration of 4 nM. Non-specific binding was determined in the presence of 10 μM NECA. The reactions were carried out in 50 mM Tris-HCL (pH 7.7) for 60 minutes at 25° C. […] To measure the inhibitory activity of the substances for the opiate receptor (Opiate) receptor was partially purified from rat forebrains. [^3 H] naloxone at 1 nM as the ligand used. Non-specific binding was determined in the presence of 1 μM of naloxone. The assays were carried out in 50 mM Tris-HCl (pH 7.4) at 25° C. for 90 minutes. […] The neuronal nicotinic receptor (Nicotinic Neuronal) was assayed using receptors partially purified from rat cortical membranes. The radioligand used was [^3 H] N-methylcarbamylcholine iodide at a final ligand concentration of 5 nM. Non-specific binding was determined in the presence of 1 μM nicotine sulfate. The assay reactions were carried out in 50 mM Tris-HCl (pH 7.4) containing 120 mM NaCl, 5 mM KCl, 2 mM CaCl2, 1 mM MgCl2, and 3 μM atropine sulfate at 4° C. for 60 minutes. […] To determine how the substances inhibit the corticotropin releasing factor (CRF) partially purified receptor from rat cortical membranes was used as the receptor preparation. […] Tyr-° CRF at a final ligand concentration of 0.1 nM. Non-specific binding was determined in the presence of 1 μM Tyr-° CRF. The reactions were carried out in 50 mM HEPES containing 10 mM MgCl2, 2 mM EGTA, 0.12 TIU/ml aprotinin and 0.3% BSA at 25° C. for 120 minutes. The reaction is terminated by centrifugation in a Sorvall centrifuge for 15 minutes at 4° C.

herpes simplex = settings: cited from earlier work
[5] = system: human immunodeficiency virus type 1 (HIV-1); settings: cited from earlier work
protein kinase C = settings: cited from earlier work
Sindbis virus = settings: cited from earlier work
[6] = system: equine infectious anemia virus; settings: cited from earlier work
stability = format: physicochemical; settings: our data
Text: Some botanicals, such as St. John's Wort, are both temperature and light sensitive. For this type of botanical the material should be dry packed with a refrigerant or shipped under refrigeration and protected from light and air. […] Stability (in absence of air) was increased to six months in a preparation extracted with ethanol.
Phloroglucinola include hyperforin (prenylated derivative of phloroglucinol), adhyperforin (similar to the bitter principle of hops, adhumulone).

murine cytomegalovirus = settings: cited from earlier work

O=[N+]([O-])c1ccc2nc(N3CCNCC3)ccc2c1 [6-NO-Quipazine]
IC50 (serotonin transporter [1]; Reference Data): 3.4 µM | nH (serotonin transporter [1]; Reference Data): 0.7400

CCC(C)C(=O)[C@]12C(=O)[C@](CC=C(C)C)(C[C@H](CC=C(C)C)[C@@]1(C)CCC=C(C)C)C(=O)C(CC=C(C)C)=C2O (stereo partly drawn) [Adhyperforin, adhyperforin]
degradation time [2]: 14 days

O=c1c(O[C@@H]2O[C@H](CO)[C@H](O)[C@H](O)[C@H]2O)c(-c2ccc(O)c(O)c2)oc2cc(O)cc(O)c12 [Hyperoside, hyperoside]
5-HT Reuptake (Table 8, words) (serotonin transporter [3]): Negative

O=C(O)C1=CCNCC1 [Isoguvacine]
Ki (GABAA receptor): 9.5 nM

O=c1c2cc(O)c(O)cc2oc2cc(O)c([C@@H]3O[C@H](CO)[C@@H](O)[C@H](O)[C@H]3O)c(O)c12 [Magniferin, mangiferin]
5-HT Reuptake (Table 8, words) (serotonin transporter [3]): Negative

NCc1cc(=O)[nH]o1 [Muscimol]
Ki (GABAA receptor): 4.4 nM

CN[C@H](CC(=O)O)C(=O)O [NMDA, N-methyl-D-aspartic acid]
Ki ([4]; read-out: Ki(nM) NMDA reference compounds): 9300 nM

Cc1ccc2c(c1)c1c3n2CCNC3CCC1 (stereo not drawn) [Pirlindole Mesylate]
IC50 (Monoamine Oxidase A): 0.016 µM

C[C@@H]1O[C@@H](Oc2c(-c3ccc(O)c(O)c3)oc3cc(O)cc(O)c3c2=O)[C@H](O)[C@H](O)[C@H]1O [Quercitrin, quercitrin]
5-HT Reuptake (Table 8, words) (serotonin transporter [3]): Negative | inhibition at 100 µM (serotonin transporter [3]; 10^-4, read-out: Sero): 39% | inhibition at 100 µM (serotonin transporter [3]; 10^-4 M, read-out: Sero % inhibition (PharmaPrint range)): 40 ± 20% | ADNS (adenosine receptor; 10^-4, 60 min, 100 µM): 45% | AD,NS % inhibition (PharmaPrint range) (adenosine receptor; 10^-4 M): 45 ± 20%

c1ccc2nc(N3CCNCC3)ccc2c1 [Quipazine maleate]
nH (serotonin transporter [1]; Reference Data): 0.8550

C[C@@H]1O[C@@H](OC[C@H]2O[C@@H](Oc3c(-c4ccc(O)c(O)c4)oc4cc(O)cc(O)c4c3=O)[C@H](O)[C@@H](O)[C@@H]2O)[C@H](O)[C@H](O)[C@H]1O [Rutin, rutin]
5-HT Reuptake (Table 8, words) (serotonin transporter [3]): Negativee

O=c1[nH]oc2c1CCNC2 [THIP, 4,5,6,7Tetrahydroisoxazolo[5,4c]pyridin3(2H)one]
Ki (GABAA receptor): 25.1 nM

c1cc2c(cc1C1CCCCC1)c1c3n2CCNC3CCC1 (stereo not drawn) [Tetrindole Mesylate]
IC50 (Monoamine Oxidase A): 0.046 µM

CCCC(=CC(N)C(=O)O)CP(=O)(O)O (stereo not drawn) [[^3 H]-CGP 39653]
Kd ([4]; radioligand, read-out: KD (binding affinity)): 0.007 µM

CC(C)OC(=O)[C@H]1[C@@H](c2ccc([125I])cc2)C[C@@H]2CC[C@H]1N2C [[^125 I]-RTI-121]
Kd (serotonin transporter [1]; radioligand): 0.0011 µM

Cc1cc(O)c2c(=O)c3c(O)cc(O)c4c5c(O)cc(O)c6c(=O)c7c(O)cc(CO)c8c1c2c(c34)c(c65)c78 [pseudohypericin]
inhibition of herpes simplex (herpes simplex): inhibit | inhibition of HIV-1 [5]: inhibit | protein kinase C IC50 (protein kinase C): 15 µg/mL | activity against Sindbis virus (Sindbis virus): Activity has also been reported | activity against equine infectious anemia virus [6]: Activity has also been reported | stability in solution (stability): unstable in solution | activity against murine cytomegalovirus (murine cytomegalovirus): Activity has also been reported
